Columns and labels:
[1] = tested on: 4T1 syngeneic orthotopic breast carcinoma; experiment: Confocal microscopy of 4T1 tumor slices after i.v. injection of dual-labeled liposomes; format: in vivo, mice; details: 24 h post-injection; EPC/DSPE-PEG2000 liposomes, 0.2 mole % DiI and Cy5-DSPE, i.v.
Protocol: Lipids at the following molar ratios: HSPC/Chol/DSPE-PEG2000 (57/38/5) or EPC/DSPE-PEG2000 (95:5) with addition of 0.2% ICL and/or 0.2% FPL were mixed and dried under a nitrogen stream. The dry lipid cake was resuspended in PBS for a total lipid concentration of 20 mM, then incubated at 60° C. for 30 minutes. The solution was then vortexed for 2 minutes and bath sonicated. Liposomes were extruded by a syringe extruder (Avestin, Ottawa, Canada) through Whatman Nucleopore Track-Etch Membranes (200 nm pore size, 15 times). HSPC-based liposomes were extruded at 60° C., EPC-based liposomes were extruded at room temperature. Size and zeta potential were measured at room temperature in the presence of 1% phosphate-buffered saline using Zetasizer Nano (Malvern, UK). Liposomes were stored at 4° C. at a final concentration of 10 mM (total lipid) for a maximum period of 8 weeks before use.
4T1 cell line was purchased from the ATCC and verified using a sequencing core. GL261 cells were obtained from the National Cancer Institute (NCI), and CT2A cells were a gift from Dr. Tom Seyfried (Boston College). LY2 cells were from Dr. Sana Karam, University of Colorado Anschutz Medical campus. Cells were grown at 37° C. in RPMI 1640 medium containing 10% heat-inactivated fetal bovine serum, 10 mM HEPES, 100 U/ml penicillin, and […] streptomycin (all from Corning Inc. New York, NY, USA). BALB/c mice were bred in-house. Mice of 8-10 weeks of age (females) were implanted with 0.5×10^6 cells into the mammary fat pad (4T1) or subcutaneously in the jaw region (LY2) and used for experiments 1 week later when tumors reached ˜200-300 mm^3. For brain tumors, C57BL/6 mice (6-8 weeks old) were implanted with a total 1×10^5 GL261 or CT-2A cells per animal using an established protocol. To determine the distribution of liposomes in tumors and organs, liposomes were injected with 50 μl of 10 mM total lipid intravenously. Blood was collected via periorbital plexus using heparin glass capillaries, and the plasma was separated by centrifugation at 500 g for 5 min. In some experiments, mice were preinjected before dissection with 50 μl of FITC-tomato lectin (1 mg/ml) and 50 μl Hoechst 33324 (2 mg/ml) to visualize the vasculature and the nuclei. Mice were sacrificed with carbon dioxide, followed by cardiac perfusion with PBS through the left ventricle.
Nikon Eclipse AR1HD inverted confocal microscope with 405 nm, 488 nm, 561 nm, and 640 nm excitation lasers and corresponding emission filters was used. For high magnification imaging, liposomes were diluted 1:200 in PBS, mixed with glycerol at 1:1 ratio and 2 μl were placed on slide. For liposomes in plasma, the samples were diluted 1:20 and mixed with glycerol. The preparations in glycerol were spread under a coverslip and imaged under Apo60 or Apo100 Oil objective at 2048×2048 resolution. For tumor imaging, tumors or whole brains were frozen on dry ice and sliced with a blade into 1-2 mm thick slices. The slices were placed on a glass slide and imaged using Plan Apo 10 objective. Channels' voltage and laser intensity were adjusted using the dual labeled liposomes placed on a slide and imaged under the same magnification. These parameters were calibrated before each imaging session using the batch of liposomes used in that experiment. For quantification, multiple random image areas from different slices of the tumor (both periphery and center) were acquired at 512×512 resolution. Images were quantified with Fiji using customized macros. Briefly, 8-bit gray image stacks were thresholded for fluorescence in the Cy3 and Cy5 channels and the percentages of binary (positive) areas were calculated using the “Measure” function. All the data were plotted with Prism version 8.3.0 (GraphPad, San Diego, CA).

[2] = tested on: syngeneic intracranial GL261 glioma; experiment: Confocal microscopy of brain slices of GL261 glioma mice after i.v. dual-labeled liposomes; format: in vivo; details: 48 h post-injection, EPC/DSPE-PEG2000 liposomes, 0.2% DiI and 0.2% Cy5-DSPE
Protocol: 4T1 cell line was purchased from the ATCC and verified using a sequencing core. GL261 cells were obtained from the National Cancer Institute (NCI), and CT2A cells were a gift from Dr. Tom Seyfried (Boston College). LY2 cells were from Dr. Sana Karam, University of Colorado Anschutz Medical campus. Cells were grown at 37° C. in RPMI 1640 medium containing 10% heat-inactivated fetal bovine serum, 10 mM HEPES, 100 U/ml penicillin, and […] streptomycin (all from Corning Inc. New York, NY, USA). BALB/c mice were bred in-house. Mice of 8-10 weeks of age (females) were implanted with 0.5×10^6 cells into the mammary fat pad (4T1) or subcutaneously in the jaw region (LY2) and used for experiments 1 week later when tumors reached ˜200-300 mm^3. […]
Nikon Eclipse AR1HD inverted confocal microscope with 405 nm, 488 nm, 561 nm, and 640 nm excitation lasers and corresponding emission filters was used. […] For quantification, multiple random image areas from different slices of the tumor (both periphery and center) were acquired at 512×512 resolution. Images were quantified with Fiji using customized macros. Briefly, 8-bit gray image stacks were thresholded for fluorescence in the Cy3 and Cy5 channels and the percentages of binary (positive) areas were calculated using the “Measure” function. […]

[3] = Ex vivo fluorescence imaging of excised tumors and livers; format: in vivo, mice
Protocol: Tumors and livers were placed in a 24-well plate and scanned as described above. To match the intensity of the channels, the same liposomes used for injection were diluted (1:10), dotted on a 0.45 μm nitrocellulose membrane, and scanned together with the samples. Mean fluorescence was determined from 8-bit TIFF images using Fiji software by drawing a region of interest around the tumors and using the “Measure” function to determine mean gray values. Such measurement is independent of the organ cross-section area. The mean gray values of non-injected tumors were subtracted from the measurements. For plasma fluorescence profile, plasma collected at different time points was serially diluted, dotted on a nitrocellulose membrane, scanned as above, and the mean fluorescence of dots was plotted versus time with Prism.

[4] = TLC of liver extracts of mice injected with liposomes; format: in vivo; details: 24 h and 48 h post-injection of DiI/Cy5-DSPE liposomes
Protocol: For extraction using a modified Bligh-Dyer method, 50-100 mg tissue was homogenized as described above, 10 parts of chloroform/methanol (2:1) were added to the homogenate (considering that tissue weight is 1 part), and the samples were mixed at 1400 rpm for 2 h at room temperature on Eppendorf Thermomixer. The tubes were centrifuged at 500 g for 10 min. The organic phase (bottom, approximately 80% of the added amount) was carefully collected, dotted on a PVDF membrane and scanned for DiI and Cy5 fluorescence as described above. Different dilutions of liposomes (standard curve) were scanned together with the samples. The percentage of the injected DiI and Cy5 in the extract was calculated from the standard curve and divided by tissue weight. The fluorescence of control non-injected organs was subtracted from that of injected organs. For TLC analysis, the mobile phase consisted of chloroform: methanol (9:1) with 1% trifluoroacetic acid and the samples were run on TLC Silica Gel 60 F254 plates (EMD Millipore).

In the case of `CCCCCCCCCCCCCCCCCC(=O)OC[C@H](COP(=O)(O)OCCNC(=O)CCCCCN1C(=CC=CC=CC2=[N+](C)c3ccccc3C2(C)C)C(C)(C)c2ccccc21)OC(=O)CCCCCCCCCCCCCCCCC` [Cy5-DSPE], the “extravasation and distribution in tumor” value [1] is reported as “mostly confined to blood vessels”, the “accumulation and spreading in glioma” value [2] is reported as “almost complete absence” and the “fluorescence in liver images over time” value ([3]; livers, later time points versus 1 h) is reported as “decrease”. For the same molecule, the “fluorescence in tumor images over time” value ([3]; tumors, 1 h, 24 h, 48 h post-injection) was “plateaued at 24 h and dropped at 48 h” and the “TLC of liver extracts of injected mice” value [4] was “degradation and disappearance”.

Source: patent US20240299553A1, “INDOCARBOCYANINE LIPID DERIVATIVES FOR IN VIVO CARGO DELIVERY” (priority 2021, published 2024)
